Test system: 299254-011-R-J1-PDC complex spheroid viability
Assay: Anticancer human tumor 299254-011-R-J1-PDC patient-derived melanoma cell line growth inhibition [POLQ]
Conditions: for IC50: curve of first compound; for viability, T/C: stronger effect = lower value
Procedure, shortened: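 Complex spheroid viability model combining PDC tumour cells with endothelial (HUVEC) and MSC stromal cells. Novobiocin, ART-558 or RP6685 were tested singly and in combination with standard and investigational anticancer drugs. Each was titrated in half-log steps from near clinical Cmax, or from 10 microM where Cmax was unknown.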

[1] = second compound 0.0316 µM, first compound 0.0316 µM
[2] = second compound 0.0316 µM, first compound 0.1 µM
[3] = second compound 0.0316 µM, first compound 0.316 µM
[4] = second compound 0.0316 µM, first compound 1 µM
[5] = second compound 0.0316 µM, first compound 3.16 µM
[6] = second compound 0.0316 µM, first compound 10 µM
[7] = second compound 0.1 µM, first compound 0.0316 µM
[8] = second compound 0.1 µM, first compound 0.1 µM
[9] = second compound 0.1 µM, first compound 0.316 µM
[10] = second compound 0.1 µM, first compound 1 µM
[11] = second compound 0.1 µM, first compound 3.16 µM
[12] = second compound 0.1 µM, first compound 10 µM
[13] = second compound 0.316 µM, first compound 0.0316 µM
[14] = second compound 0.316 µM, first compound 0.1 µM
[15] = second compound 0.316 µM, first compound 0.316 µM
[16] = second compound 0.316 µM, first compound 1 µM
[17] = second compound 0.316 µM, first compound 3.16 µM
[18] = second compound 0.316 µM, first compound 10 µM
[19] = second compound 1 µM, first compound 0.0316 µM
[20] = second compound 1 µM, first compound 0.1 µM
[21] = second compound 1 µM, first compound 0.316 µM
[22] = second compound 1 µM, first compound 1 µM
[23] = second compound 1 µM, first compound 3.16 µM
[24] = second compound 1 µM, first compound 10 µM
[25] = second compound 3.16 µM, first compound 0.0316 µM
[26] = second compound 3.16 µM, first compound 0.1 µM
[27] = second compound 3.16 µM, first compound 0.316 µM
[28] = second compound 3.16 µM, first compound 1 µM
[29] = second compound 3.16 µM, first compound 3.16 µM
[30] = second compound 3.16 µM, first compound 10 µM
[31] = second compound 10 µM, first compound 0.0316 µM
[32] = second compound 10 µM, first compound 0.1 µM
[33] = second compound 10 µM, first compound 0.316 µM
[34] = second compound 10 µM, first compound 1 µM
[35] = second compound 10 µM, first compound 3.16 µM
[36] = second compound 10 µM, first compound 10 µM
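Further: spheroids exposed to drugs for one week before measurement.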
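Wherever viability, T/C is given: percent viability relative to DMSO vehicle control taken as 100%.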

Compound CNCc1ccc(-c2[nH]c3cc(F)cc4c3c2CCNC4=O)cc1 + Cc1cccc(N(C)C(=O)C2C(O)CCN2c2nc(C)cc(C(F)(F)F)c2C#N)c1 has an IC50 (second compound 0.0316 µM) greater than 10 µM, an IC50 (second compound 0.1 µM) greater than 10 µM and an IC50 (second compound 0.316 µM) greater than 10 µM. It also gave an IC50 (second compound 1 µM) greater than 10 µM, an IC50 (second compound 3.16 µM) greater than 10 µM and an IC50 (second compound 10 µM) greater than 10 µM. It also gave a viability, T/C [1] of 101%, a viability, T/C [2] of 100% and a viability, T/C [3] of 104%. For the same compound, the viability, T/C [4] was 109%, the viability, T/C [5] was 104% and the viability, T/C [6] was 136%. It also gave a viability, T/C [7] of 102%, a viability, T/C [8] of 105% and a viability, T/C [9] of 110%. For the same compound, the viability, T/C [10] was 112%, the viability, T/C [11] was 112% and the viability, T/C [12] was 118%. It also gave a viability, T/C [13] of 109%, a viability, T/C [14] of 110% and a viability, T/C [15] of 98.1%. For the same compound, the viability, T/C [16] was 108%, the viability, T/C [17] was 130% and the viability, T/C [18] was 116%. For the same compound, the viability, T/C [19] was 107%, the viability, T/C [20] was 109% and the viability, T/C [21] was 98.3%. For the same compound, the viability, T/C [22] was 103%, the viability, T/C [23] was 119% and the viability, T/C [24] was 118%. It also gave a viability, T/C [25] of 120%, a viability, T/C [26] of 110% and a viability, T/C [27] of 117%. For the same compound, the viability, T/C [28] was 109%, the viability, T/C [29] was 112% and the viability, T/C [30] was 119%. It also gave a viability, T/C [31] of 113%, a viability, T/C [32] of 98.5% and a viability, T/C [33] of 96.8%. The viability, T/C [34] was 97%, the viability, T/C [35] was 108% and the viability, T/C [36] was 118%.
COc1cccc(OCCCN)c1-c1cc(Nc2cnc(C#N)cn2)n[nH]1 + Cc1cccc(N(C)C(=O)C2C(O)CCN2c2nc(C)cc(C(F)(F)F)c2C#N)c1 showed an IC50 (second compound 0.0316 µM) of 0.188 µM, an IC50 (second compound 0.1 µM) of 0.136 µM and an IC50 (second compound 0.316 µM) of 0.0954 µM. It also gave an IC50 (second compound 1 µM) of 0.207 µM, an IC50 (second compound 3.16 µM) of 0.105 µM and an IC50 (second compound 10 µM) of 0.112 µM. It also gave a viability, T/C (second compound 0.0316 µM, first compound 0.00316 µM) of 99.2%, a viability, T/C (second compound 0.0316 µM, first compound 0.01 µM) of 108% and a viability, T/C [1] of 71.2%. For the same compound, the viability, T/C [2] was 64.1%, the viability, T/C [3] was 39.6% and the viability, T/C [4] was 42%. It also gave a viability, T/C (second compound 0.1 µM, first compound 0.00316 µM) of 92.7%, a viability, T/C (second compound 0.1 µM, first compound 0.01 µM) of 104% and a viability, T/C [7] of 75.6%. For the same compound, the viability, T/C [8] was 53.7%, the viability, T/C [9] was 49% and the viability, T/C [10] was 38.2%. The viability, T/C (second compound 0.316 µM, first compound 0.00316 µM) was 100%, the viability, T/C (second compound 0.316 µM, first compound 0.01 µM) was 106% and the viability, T/C [13] was 74.7%. For the same compound, the viability, T/C [14] was 52%, the viability, T/C [15] was 49.2% and the viability, T/C [16] was 45.6%. The viability, T/C (second compound 1 µM, first compound 0.00316 µM) was 90.6%, the viability, T/C (second compound 1 µM, first compound 0.01 µM) was 103% and the viability, T/C [19] was 71.1%. It also gave a viability, T/C [20] of 65.9%, a viability, T/C [21] of 40.6% and a viability, T/C [22] of 38.9%. It also gave a viability, T/C (second compound 3.16 µM, first compound 0.00316 µM) of 120%, a viability, T/C (second compound 3.16 µM, first compound 0.01 µM) of 107% and a viability, T/C [25] of 72.3%. The viability, T/C [26] was 52.2%, the viability, T/C [27] was 41% and the viability, T/C [28] was 33.9%. It also gave a viability, T/C (second compound 10 µM, first compound 0.00316 µM) of 103%, a viability, T/C (second compound 10 µM, first compound 0.01 µM) of 85.1% and a viability, T/C [31] of 64.8%. The viability, T/C [32] was 54.1%, the viability, T/C [33] was 37.8% and the viability, T/C [34] was 39.8%.
O=C(c1cc(Cc2n[nH]c(=O)c3ccccc23)ccc1F)N1CCN(C(=O)C2CC2)CC1 + Cc1cccc(N(C)C(=O)C2C(O)CCN2c2nc(C)cc(C(F)(F)F)c2C#N)c1 showed an IC50 (second compound 0.0316 µM) greater than 10 µM, an IC50 (second compound 0.1 µM) greater than 10 µM and an IC50 (second compound 0.316 µM) greater than 10 µM. For the same compound, the IC50 (second compound 1 µM) was greater than 10 µM, the IC50 (second compound 3.16 µM) was greater than 10 µM and the IC50 (second compound 10 µM) was greater than 10 µM. For the same compound, the viability, T/C [1] was 90.3%, the viability, T/C [2] was 85.9% and the viability, T/C [3] was 98.3%. For the same compound, the viability, T/C [4] was 104%, the viability, T/C [5] was 99.6% and the viability, T/C [6] was 101%. For the same compound, the viability, T/C [7] was 93.5%, the viability, T/C [8] was 108% and the viability, T/C [9] was 95%. It also gave a viability, T/C [10] of 97.5%, a viability, T/C [11] of 110% and a viability, T/C [12] of 77.4%. It also gave a viability, T/C [13] of 93%, a viability, T/C [14] of 94% and a viability, T/C [15] of 95.9%. It also gave a viability, T/C [16] of 104%, a viability, T/C [17] of 106% and a viability, T/C [18] of 83.8%. For the same compound, the viability, T/C [19] was 125%, the viability, T/C [20] was 101% and the viability, T/C [21] was 108%. The viability, T/C [22] was 117%, the viability, T/C [23] was 102% and the viability, T/C [24] was 80.2%. It also gave a viability, T/C [25] of 96.4%, a viability, T/C [26] of 111% and a viability, T/C [27] of 99.6%. The viability, T/C [28] was 115%, the viability, T/C [29] was 92.8% and the viability, T/C [30] was 74.2%. For the same compound, the viability, T/C [31] was 102%, the viability, T/C [32] was 94.5% and the viability, T/C [33] was 83.2%. It also gave a viability, T/C [34] of 89.2%, a viability, T/C [35] of 92.9% and a viability, T/C [36] of 69%.
